Reference: article PMC3598812, “Evaluation of Anti-Hyperalgesic and Analgesic Effects of Two Benzodiazepines in Human Experimental Pain: A Randomized Placebo-Controlled Study” (PLoS ONE, 2013)
“Also recorded” adds a separate entry of the source. Where two headings read alike, the source gives them in different places.

Assays:
healthy male volunteers [1] = assay: Intramuscular repeated (5 stimuli) electrical stimulation pain threshold; type: in vivo, human; conditions: for Pain threshold after 5 intramuscular electrical stimuli: mean (SD)
Text: The stimulus burst used for single stimulus was repeated 5 times at 2 Hz, at constant intensity. The current intensity of the 5 stimuli was increased from 1 mA in steps of 0.5 mA until the subjects felt pain during the last 2–3 of the 5 stimuli (indicating temporal summation).
A needle was placed in the tibialis anterior muscle, 14 cm distal from the caudal end of the patella and 20 mm in depth. The same single and repeated stimulation patterns and the same procedure described for cutaneous stimulation were used.

healthy male volunteers [2] = assay: Pressure pain detection and tolerance thresholds (pressure algometer, 2nd toe); type: in vivo, human; conditions: mean (SD)
Description: Pain detection and tolerance thresholds were measured with an electronic pressure algometer (Somedic, Hörby, Sweden) applied at the center of the pulp of the 2nd toe. […] The pressure was increased from 0 at a rate of 30 kPa/s to a maximum pressure of 1200 kPa. Pain detection threshold was defined as the point at which the pressure sensation turned to pain. Pain tolerance threshold was defined as the point at which the subject felt the pain as intolerable. If the threshold was not reached at 1200 kPa, this value was considered as threshold. Three assessments were made and the mean of these 3 measurements were used for the data analysis.

patients / volunteers = conditions: cited from earlier work
healthy male volunteers [3] = assay: Psychomotor performance, digit symbol substitution test (DSST); conditions: for DSST-score: single oral dose (clobazam 20 mg, clonazepam 1 mg, tolterodine 1 mg), mean (SD)
Description: The psychomotor performance was assessed by the digit symbol substitution test (DSST), a subscale of the Wechsler Adult Intelligence Scale. The DSST evaluates the ability to concentrate and modifications in processing information [23]. It is a two-minute paper-and-pencil test. The subject was asked to replace digits with corresponding symbols according to a code given on the same sheet of paper. The score consists in the total number and the correct number of symbols drawn.
Pressure pain, conditioned pain modulation (CPM), intramuscular electrical pain tests, cuff algometry and DSST were performed 120 min after drug intake.
After 15 min, the whole battery of tests was performed.

[4] = trial protocol, cited from earlier work
healthy male volunteers [5] = assay: Cutaneous single electrical stimulation pain threshold; type: in vivo, human; conditions: mean (SD)
Description: Electrical stimulation was performed through electrodes placed distal to the lateral malleolus. A 25 ms, train-of-five, 1 ms, square-wave impulse (perceived as one stimulus), was delivered by a computer-controlled constant current stimulator (Digitimer DS7A, Neurospec, Letchworth Garden City, UK). The current intensity was increased from 1 mA in steps of 0.5 mA until a pain sensation was evoked.
Three assessments were made and the mean of these 3 measurements was used for the data analysis.

healthy male volunteers [6] = assay: Area of static hyperalgesia after intradermal capsaicin injection (512 mN von Frey hair); type: in vivo, human; conditions: for Area of static hyperalgesia: single oral dose (clobazam 20 mg, clonazepam 1 mg, tolterodine 1 mg), mean (SD)
Text: Intradermal injection of capsaicin causes a brief stinging/burning pain at the injection site followed by development of secondary hyperalgesia, i.e. hyperalgesia detected at surrounding (not injected) skin [15], [16]. Secondary hyperalgesia after intradermal capsaicin is the result of sensitization of the central nervous system, which is one of the most relevant aspects of neuroplastic changes. This model was sensitive to the action of GABAergic compounds in animal studies.
The capsaicin solution was prepared by the Hospital Pharmacy and underwent sterile filtration into sterile septum-sealed vials. The sterile solution (1 mg/ml) was placed into sterile syringes and used for intradermal injection at room temperature. The skin temperature was measured using a digital thermometer, and was 32°C+/−1 in all subjects.
Subjects remained semi-supine during the experiment. Before capsaicin injection, the skin of the forearm was cleaned using an antiseptic wipe and allowed to air dry. The injection site was marked midway between the elbow and the wrist. Using a surgical skin marker, 4 lines were drawn through the injection site, so that they intersected the corners of a regular octagon (figure 2). These lines were marked every 0.5 cm from the center to the edges using a predefined grid. […] We determined the area of hyperalgesia by adding the areas of each triangle in which hyperalgesia was recorded.
Using a 1-ml tuberculin syringe fitted with a 27-gauge disposable needle, 100 µl capsaicin were injected […] into the skin, at the intersection of the 4 vectors previously drawn. A white skin elevation appeared during injection ensuring correct injection.
Static mechanical hyperalgesia was judged to be present when the subjects reported that applying a 512 mN von Frey Hair, 5 and 30 minutes after capsaicin injection, elicited pain with an intensity of at least 4 using a numerical rating scale (NRS, whereby 0 = no pain and 10 = worst pain). Only these subjects were included in the study. In order to document pain induction, the subject recorded pain intensity at injection and 5 minutes post-injection using a 10 cm visual analogue pain scale (VAS), whereby 0 = no pain and 10 = worst pain imaginable.
The area of secondary hyperalgesia was assessed using a calibrated 512 mN von Frey hair. The punctuated probe was moved along the 8 radial lines defined above, starting approximately 6 cm away from the site of injection, at each mark in steps of 0.5 cm. The weighted von Frey hair was placed gently on the skin and the load was applied for 2 seconds. The volunteers were asked to report when the pricking sensation changed to a pain sensation. At least 4 seconds elapsed between consecutive stimuli. This procedure was repeated for each vector. The number corresponding to the marker at which sensation changes as described above was noted and the individual numbers were used to calculate the area of hyperalgesia.
The flow of the experiment is illustrated in figure 3. After training, basal values for the pain tests were determined. The study medication was given immediately after the intradermal injection of capsaicin. Thus, basal values were recorded for all tests, except for those related to capsaicin injection. Because of the relatively short duration of hyperalgesia induced by capsaicin, the recordings of basal values before drug administration would yield a too short testing procedure.

healthy male volunteers [7] = assay: Cuff algometry (tourniquet cuff on the leg, VAS-time AUC); type: in vivo, human; set-up: AUC of VAS during cuff algometry: unit not given beside the values; conditions: for AUC of VAS during cuff algometry: mean (SD)
Text: A tourniquet cuff was applied to the middle of the leg, at the level of the heads of the gastrocnemius and soleus muscle. The cuff was applied at the side contralateral to the side of electrical stimulation in order not to interfere with the positioning of the intramuscular electrodes. During stimulation, the volunteer rated the pain intensity on an electronic VAS scale. The cuff was inflated with compressed air until VAS 6 was reached. The maximum allowed inflating pressure was 200 kPa. The pressure was maintained for 10 min or until the subjects rated the pain as intolerable. The area under the curve VAS-time was computed. For those subjects who felt intolerable pain before 10 min, the time when the cuff was deflated was recorded and VAS 10 was extrapolated until 10 min. Additionally, the maximal VAS during inflation was recorded.

[8] = baseline before medication, per drug session
[9] = single oral dose (clobazam 20 mg, clonazepam 1 mg, tolterodine 1 mg), 120 min after medication
[10] = single oral dose (clobazam 20 mg, clonazepam 1 mg, tolterodine 1 mg), after flumazenil 0.2 mg iv
[11] = placebo-controlled, double-blind trial, 114 outpatients with anxiety, mean doses 59 mg clobazam daily, 25 mg diazepam daily, ref Micromedex 2009

Compound: CN1C(=O)CC(=O)N(c2ccccc2)c2cc(Cl)ccc21 [Clobazam]
- Pain threshold after 5 intramuscular electrical stimuli (healthy male volunteers [1]; [8]): 1.4 (1.1) mA
- Change in pain threshold after 5 intramuscular electrical stimuli between baseline and 120 minutes (healthy male volunteers [1]; main analysis, pairwise multiple comparison): statistically significant increase; also recorded: Significant increase in pain thresholds
- Change in pain detection threshold after 5 intramuscular electrical stimuli from baseline to peak value (healthy male volunteers [1]; peak value analysis, pairwise comparisons within each drug): significant increase; also recorded: Consistent for an increase in pain thresholds after clobazam and clonazepam
- Pain threshold after 5 intramuscular electrical stimuli (healthy male volunteers [1]; [9]): 2.1 (2.2) mA
- Pain threshold after 5 intramuscular electrical stimuli (healthy male volunteers [1]; [10]): 2.2 (2.0) mA
- Pressure pain detection threshold (healthy male volunteers [2]; [8]): 432 (123) kPa
- Pressure pain detection threshold (healthy male volunteers [2]; [9]): 379 (130) kPa
- Pressure pain detection threshold (healthy male volunteers [2]; [10]): 393 (118) kPa
- Effect on cognitive and psychomotor functions (patients / volunteers; 20 mg clobazam, unlike 2 mg clonazepam): did not affect significantly
- Sedation compared with 1 mg of clonazepam (patients / volunteers; 20 mg of clobazam): less sedative
- Dizziness, share of treated patients (patients / volunteers; [11]): 2%
- Sedation, share of treated patients (patients / volunteers; [11]): 38%
- DSST score compared with tolterodine at 120 min (healthy male volunteers [3]; main analysis, pairwise comparison within the time-points): not
- DSST-score (healthy male volunteers [3]; 120 min after drug administration): 74.9 (14.7)
- DSST-score (healthy male volunteers [3]; after flumazenil 0.2 mg iv): 81.1 (12.1)
- Time to maximum plasma concentration ([4]; after 10 mg in healthy volunteers): 1.3 ± 0.2 h
- Time to maximum plasma concentration ([4]; after 20 mg in healthy volunteers): 1.6 h
- Time to maximum plasma concentration ([4]; general statement): about 2 h
- Bioavailability ([4]; drug background): 90%
- Half life (t1/2) ([4]; drug background): circa 20 h
- Pain threshold after single cutaneous electrical stimulation (healthy male volunteers [5]; [8]): 10.0 (2.9) mA
- Pain threshold after single cutaneous electrical stimulation (healthy male volunteers [5]; single oral dose (clobazam 20 mg, clonazepam 1 mg, tolterodine 1 mg), 30 min after medication): 10.3 (3.6) mA
- Pain threshold after single cutaneous electrical stimulation (healthy male volunteers [5]; single oral dose (clobazam 20 mg, clonazepam 1 mg, tolterodine 1 mg), 60 min after medication): 10.2 (3.8) mA
- Pain threshold after single cutaneous electrical stimulation (healthy male volunteers [5]; single oral dose (clobazam 20 mg, clonazepam 1 mg, tolterodine 1 mg), 90 min after medication): 11.2 (3.3) mA
- Pain threshold after single cutaneous electrical stimulation (healthy male volunteers [5]; [9]): 12.2 (3.9) mA
- Pain threshold after single cutaneous electrical stimulation (healthy male volunteers [5]; [10]): 12.0 (4.3) mA
- Change in the area of static hyperalgesia over time (healthy male volunteers [6]; main analysis, pairwise multiple comparisons within each drug): no statistically significant increase
- Area of static hyperalgesia (healthy male volunteers [6]; 30 min after medication): 39.7 (18.6) cm^2
- Area of static hyperalgesia (healthy male volunteers [6]; 60 min after medication): 44.3 (17.1) cm^2
- Area of static hyperalgesia (healthy male volunteers [6]; 90 min after medication): 43.0 (15.0) cm^2
- Area of static hyperalgesia (healthy male volunteers [6]; 120 min after medication): 43.6 (16.5) cm^2
- Area of static hyperalgesia (healthy male volunteers [6]; after flumazenil 0.2 mg iv): 43.8 (15.0) cm^2
- AUC of VAS during cuff algometry (healthy male volunteers [7]; [8]): 3446 (539)
- Cuff algometry, overview of peak value or subgroup analysis (healthy male volunteers [7]; overview table, compared to tolterodine): Time factor significant, favouring clobazam and clonazepam compared to tolterodine
- AUC of VAS during cuff algometry (healthy male volunteers [7]; [9]): 3001 (831)
- AUC of VAS during cuff algometry (healthy male volunteers [7]; [10]): 2932 (566)
